The source of these data is patent publication US20070015803A1, “Methods for treating diseases through interruption of protein maturation, compounds that inhibit the function of molecular chaperones such as protein disulfide isomerases or interfere with glycosylation, pharmaceutical compositions comprising them, and screening methods for identifying therapeutic …” (Romark Laboratories L.C., priority 2005, published 2007).

In assay [1] the test system is IL-1β, IL-6 and TNF-alpha. Description: Cytokine suppressing ability in cell culture. The class given is cell-based. Particulars: in particular IL-1β.
The subject of assay [2] is Neospora caninum. Nature of the assay: In vitro or cell culture activity against Neospora caninum (compounds 1-13). The class given is cell-based. The source says: (§1) The following compounds numbered 1-13 in the table below have been synthesized and tested in vitro or in cell culture against Neospora caninum (a protozoan), para-influenza virus, sendai virus, influenza A virus, and/or rhinovirus. In addition, applicant notes that compounds 12 and 13 have shown good activity against viruses and Neospora caninum.

The subject of assay [3] is para-influenza virus, sendai virus, influenza A virus, and/or rhinovirus. Description: In vitro or cell culture activity against viruses. The class given is cell-based.
From the text: as §1

In assay [4] the test system is chronic hepatitis C. Nature of the assay: Adults with chronic hepatitis C, serum virus RNA. The class given is in vivo, human. Particulars: 500 mg tablet twice daily for 24 weeks. The source says:
(§2) Cell culture studies of the mechanism of action by which tizoxanide suppresses rotavirus infection have been carried out. […] Studies have shown that tizoxanide binds to PDI-4 of Giardia intestinalis (an extra-cellular protozoan) and that tizoxanide is effective in vitro against Giardia intestinalis. • b. Studies have shown that tizoxanide binds to PDI isolated from Neospora caninum (intracellular protozoan) and is effective in vitro against this organism. • c. […] Studies in humans have shown that adults with chronic hepatitis B or with chronic hepatitis C can be effectively treated by administering nitazoxanide 500 mg (in tablet form) twice daily for 24 weeks with the patients having undetectable virus DNA or RNA in their serum at the end of treatment.

Assay [5] deals with human colon cancer cell lines. Description: Replication of human colon cancer cell lines and other cell lines. Particulars: human colon cancer cell lines and a variety of other cell lines. It counts as cell-based.
From the text: as §2

Assay [6] has as its system rotavirus. Description: Children with severe rotavirus disease, versus placebo. It counts as in vivo, human. Particulars: 7.5 mg/kg twice daily oral, compared to placebo.
The nature of assay [7]: Human subject with elevated liver enzymes due to autoimmune hepatitis. Particulars: 500 mg twice daily orally, 10-day course. It counts as in vivo.
From the text: as §2

For assay [8], the system named is chronic hepatitis B. Nature of the assay: Adults with chronic hepatitis B, serum virus DNA. It counts as in vivo, human. Particulars: 500 mg tablet twice daily for 24 weeks.
From the text: as §2

For assay [9], the system named is Giardia intestinalis. Description: In vitro efficacy against Giardia intestinalis. Particulars: extra-cellular protozoan. The class given is cell-based.
From the text: as §2

Assay [10] relates to pro-inflammatory cytokines: IL-2, IL-4, IL-5, IL-6, IL-8, IL-10, IL-12 and TNF-alpha. Description: Secretion of pro-inflammatory cytokines. The class given is cell-based.
From the text: as §2

Assay [11] deals with rotavirus. Nature of the assay: Cell culture studies of the mechanism by which tizoxanide suppresses rotavirus infection. It counts as cell-based.
From the text: as §2

The target of assay [12] is T1, PDI isolated from Neospora caninum (Neospora caninum, UniProt F0VAI6).
T1 construct: PDI isolated from Neospora caninum; from tissue; host or cells: Neospora caninum (parasite material)
T1 sequence (F0VAI6 entry or part of it): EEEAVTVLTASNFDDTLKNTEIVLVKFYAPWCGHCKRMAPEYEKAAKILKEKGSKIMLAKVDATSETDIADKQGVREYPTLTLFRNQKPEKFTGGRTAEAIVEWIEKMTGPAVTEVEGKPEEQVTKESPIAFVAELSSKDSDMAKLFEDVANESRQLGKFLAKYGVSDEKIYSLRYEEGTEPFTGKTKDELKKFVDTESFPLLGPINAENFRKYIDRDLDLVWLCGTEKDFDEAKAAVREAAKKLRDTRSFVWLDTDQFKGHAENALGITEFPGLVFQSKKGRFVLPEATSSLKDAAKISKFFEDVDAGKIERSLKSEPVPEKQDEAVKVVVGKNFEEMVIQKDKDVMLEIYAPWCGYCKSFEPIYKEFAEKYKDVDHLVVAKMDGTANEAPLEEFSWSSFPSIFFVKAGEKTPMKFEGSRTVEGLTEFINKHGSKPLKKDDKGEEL
Description: Binding to PDI isolated from Neospora caninum.
From the text: as §2

Assay [13] relates to PDI-4 of Giardia intestinalis. Nature of the assay: Binding to PDI-4 of Giardia intestinalis.
From the text: as §2

Assay [14] deals with Neospora caninum. Nature of the assay: In vitro efficacy against Neospora caninum (tizoxanide). It counts as cell-based. Particulars: intracellular protozoan.
From the text: as §2

As to `CC(=O)Oc1c(C)cccc1C(=O)Nc1ncc(Br)s1` [Compound 3], the suppression of cytokines result in assay [1] is “showed activity in suppressing cytokines”.

Consider `O=C(Nc1cccc(F)c1)c1ccccc1O` [Compound 12, N-(3-fluorophenyl)-2-hy-droxybenzamide], for which, in [2], the “activity against Neospora caninum” value is recorded as “good activity”. In [3], the activity against viruses entry is listed as “good activity”.

Regarding `O=C(Nc1cccc(Cl)c1)c1ccccc1O` [Compound 13, N-(3-chlorophenyl)-2-hy-droxybenzamide], the “activity against Neospora caninum” value in [2] was “good activity”. Also, the activity against viruses entry in assay [3] is listed as “good activity”.

On to `CC(=O)Oc1ccccc1C(=O)Nc1ncc([N+](=O)[O-])s1` [nitazoxanide], for which, in assay [4], the “virus RNA in serum at end of treatment” value is listed as “undetectable”. For the same compound, the “replication of cell lines” value in [5] is reported as “inhibits the replication”. For the same compound, the duration of illness result in assay [6] is “significantly reduces the duration of illness”. In addition, the liver transaminases entry in assay [7] is listed as “reduced liver transaminases to normal levels”. The “virus DNA in serum at end of treatment” value in [8] is “undetectable”.

As to `O=C(Nc1ncc([N+](=O)[O-])s1)c1ccccc1O` [tizoxanide], the efficacy in vitro result in assay [9] was “effective”. Moreover, the “secretion of pro-inflammatory cytokines” value in assay [10] is given as “inhibits secretion”. Also, in [11], the “VP7 maturation to a stage allowing glycosylation” value is given as “prevented VP7 from reaching a stage of maturation that allowed it to be glycosylated”, the “effect on viral transcription” value is reported as “did not affect” and the “maturation of virus protein” value is on record as “prevent maturation of virus protein”. Moreover, the “effect on synthesis and/or maturation of VP7” value in assay [11] (single protein identified as VP7) is given as “selectively affects”. Also, in assay [12], the “binding to PDI” value is reported as “binds”. The “binding to PDI-4” value in [13] was “binds”. Besides, the efficacy in vitro result in assay [14] is “effective”.
